The results in this text go back to patent publication US12427192B2, “Water soluble adjuvant and composition containing same” (Sumitomo Pharma Co., Ltd., priority 2019, dated 2025).

For orientation: EC50 means the midpoint of the concentration-response curve. A low value points to a more potent agent.

The experiment deals with T1, mouse TLR7 (Mus musculus, UniProt P58681).
T1 construct: expresses full-length mouse TLR7 and secretory SEAP reporter gene; host or cells: HEK-Blue mTLR7 (HEK293-derived)
T1 sequence (P58681 27-1050): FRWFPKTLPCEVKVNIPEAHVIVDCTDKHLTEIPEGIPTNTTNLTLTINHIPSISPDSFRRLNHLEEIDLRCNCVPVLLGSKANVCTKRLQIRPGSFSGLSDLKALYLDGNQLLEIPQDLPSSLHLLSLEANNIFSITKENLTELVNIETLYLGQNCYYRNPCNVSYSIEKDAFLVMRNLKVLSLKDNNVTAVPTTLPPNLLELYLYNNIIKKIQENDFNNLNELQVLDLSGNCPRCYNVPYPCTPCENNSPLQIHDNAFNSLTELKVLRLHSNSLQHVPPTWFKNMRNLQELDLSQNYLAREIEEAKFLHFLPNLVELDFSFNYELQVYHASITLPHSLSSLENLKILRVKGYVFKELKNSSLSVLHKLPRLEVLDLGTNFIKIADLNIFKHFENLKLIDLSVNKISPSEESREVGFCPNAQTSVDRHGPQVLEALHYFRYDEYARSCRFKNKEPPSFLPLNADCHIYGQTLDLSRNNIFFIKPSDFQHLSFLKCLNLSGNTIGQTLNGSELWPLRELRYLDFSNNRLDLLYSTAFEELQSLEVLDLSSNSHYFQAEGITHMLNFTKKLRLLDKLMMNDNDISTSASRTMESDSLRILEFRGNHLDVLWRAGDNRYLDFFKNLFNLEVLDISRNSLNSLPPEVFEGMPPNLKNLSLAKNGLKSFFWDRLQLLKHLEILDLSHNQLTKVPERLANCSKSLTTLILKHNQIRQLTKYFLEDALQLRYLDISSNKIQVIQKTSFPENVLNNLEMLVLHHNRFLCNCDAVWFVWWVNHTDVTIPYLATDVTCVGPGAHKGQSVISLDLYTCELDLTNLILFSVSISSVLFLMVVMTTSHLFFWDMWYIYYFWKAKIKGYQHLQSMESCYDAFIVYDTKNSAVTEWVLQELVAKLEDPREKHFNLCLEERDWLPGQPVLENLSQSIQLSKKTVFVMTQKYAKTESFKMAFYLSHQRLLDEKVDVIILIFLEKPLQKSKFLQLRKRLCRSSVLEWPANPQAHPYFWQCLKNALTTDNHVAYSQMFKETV
Briefly: Mouse TLR7 reporter gene assay (HEK-Blue mTLR7 cell line), Test 2. Format: cell-based. Particulars: half of maximal SEAP induction, 20-24-hour incubation, 0.1% DMSO. The text has this: Test 2 Mouse TLR7 Reporter Gene Assay
HEK-Blue™ mTLR7 cell line (Invivogen) is a stably co-transfected cell line which expresses full-length mouse TLR7 and secretory SEAP reporter gene under the transcriptional regulation of an NF-κB response element. The TLR7 expression of the cell line has been already tested by RT-PCR. Transfectants with stable expression were selected using the antibiotic blasticidin and Zeocin. TLR signaling leads to the translocation of NF-κB and the activation of the promoter results in expression of the SEAP gene. TLR7-specific activation was assessed by determining the level of SEAP produced following 20-24-hour incubation of the cells at 37° C. with each compound prepared in Examples and Reference examples in the presence of 0.1% (v/v) DMSO. The mouse TLR7 activity for the present compound was assessed by mouse TLR7 reporter gene assay, and the results are shown in Tables 5 and 6 as the compound concentration which produced half of the maximal level of SEAP induction (EC50).
A general note: A reporter such as luciferase makes a cellular process visible.

As to `CCCCCNc1nc(N)nc(C)c1Cc1ccc(CN(C)CCOCCOCCOCCOCCO)cc1OC` [Example 1, 1-(4-{[2-amino-4-methyl-6-(pentylamino)pyrimidin-5-yl]methyl}-3-methoxyphenyl)-2-methyl-5,8,11,14-tetraoxa-2-azahexadecan-16-ol·trifluoroacetate], the EC50 came out at 28 nM.
Regarding `CCCCCNc1nc(N)nc(C)c1Cc1ccc(CNC)cc1OC` [Reference example 12, 5-({2-methoxy-4-[(methylamino)methyl]phenyl}methyl)-6-methyl-N^4-pentylpyrimidine-2,4-diamine, reference compound], the EC50 is 15 nM.
